Assay results taken from ChEMBL document CHEMBL1201862, “PubChem BioAssay data set” (2004).
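96-well plates; 48 h exposure; 5 concentrations. Endpoints by linear interpolation between flanking doses. Not reached: highest tested concentration assigned. GI50: concentration for 50% inhibition of growth.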 The source made the active and inactive calls. Rule as the data show it: active = GI50 up to about 1.1 µM and inactive = higher.

Legend:
Assay in all cases: NCI tumour cell line growth inhibition, 48 h
786-0 = tested on: 786-0
DLD-1 = tested on: DLD-1
KM-20L2 = tested on: KM-20L2
LXFL 529 = tested on: LXFL 529
M19-MEL = tested on: M19-MEL
RXF 631 = tested on: RXF 631
MDA-MB-231 = tested on: MDA-MB-231
MDA-N = tested on: MDA-N
SNB-78 = tested on: SNB-78

Measured: GI50

COc1ccc(C(O)/C(=N\NC(N)=S)c2nc3ccc([N+](=O)[O-])cc3nc2O)cc1OC (stereo unspecified)
inactive: 786-0 > 100 µM | DLD-1 > 100 µM | KM-20L2 > 100 µM | LXFL 529 > 100 µM | M19-MEL > 100 µM | RXF 631 > 100 µM

CCCc1c(-c2ccccc2)[nH]c2ccccc2c1=O
inactive: MDA-MB-231 32.2 µM | MDA-N 41.4 µM

C/C(=C\c1ccccc1)C(=O)CCN1CCOCC1
inactive: DLD-1 17.3 µM | KM-20L2 19.5 µM | M19-MEL 17.2 µM | SNB-78 15.6 µM

O=C(N[C@H]1c2ccsc2/C(=N/O)[C@H]1O)C(F)(F)F
inactive: MDA-MB-231 > 10 µM | MDA-N > 100 µM

C#CC(O)(c1nc2ccccc2s1)c1nc2ccccc2s1
inactive: 786-0 18.5 µM | MDA-MB-231 15.7 µM | MDA-N 21.2 µM

C[C@]12CC[C@H]3[C@@H](CC=C4C[C@@H](O)CC[C@@]43C)[C@@H]1C/C(=C\c1ccc([N+](=O)[O-])cc1)[C@@H]2O
inactive: 786-0 10.9 µM | MDA-MB-231 7.93 µM

c1ccc(Nc2nnc(-c3nsc4ccccc34)o2)cc1
inactive: KM-20L2 > 100 µM | LXFL 529 85.5 µM | M19-MEL > 100 µM | SNB-78 89.5 µM

CSCSCC(CO)NC(=O)/C(C)=C\c1c(C)[nH]c(=O)[nH]c1=O (stereo unspecified)
inactive: DLD-1 > 250 µM | KM-20L2 > 250 µM | M19-MEL > 250 µM | SNB-78 > 250 µM

C1=C2C3=[N+](CCCCC3)CC2Cc2ccsc21 (stereo unspecified)
inactive: 786-0 > 100 µM | MDA-MB-231 > 100 µM | MDA-N > 100 µM

C=CC1(c2ccc3ccccc3c2)OCC(CC)O1 (stereo unspecified)
active: MDA-MB-231 0.207 µM
inactive: 786-0 85.9 µM | MDA-N 24.8 µM

COC1=C(OC)C(=O)c2cc(SC)c(=O)c(SC)cc2C1=O
inactive: 786-0 17.3 µM | DLD-1 28.4 µM | KM-20L2 > 100 µM | LXFL 529 15.8 µM

COc1cc2c(cc1OC)C1Cc3cc(OC)c(OC)cc3C(C2)O1
inactive: MDA-MB-231 29.1 µM | MDA-N > 100 µM

CC(=O)Oc1ccc(C2COc3cc(OC(C)=O)c(OC(C)=O)cc3C2)cc1 (stereo unspecified)
inactive: DLD-1 17.9 µM | KM-20L2 37.2 µM | M19-MEL 12.9 µM | SNB-78 24.3 µM

CCCCn1cc[n+](-c2nc3ccccc3n2C)c1
inactive: DLD-1 > 100 µM | KM-20L2 > 100 µM | LXFL 529 > 100 µM | RXF 631 > 100 µM | SNB-78 > 100 µM

N#CCCN(c1ccc(/C=N/c2cccc([N+](=O)[O-])c2)cc1)S(=O)(=O)c1ccccc1
inactive: 786-0 > 100 µM | DLD-1 > 100 µM | LXFL 529 > 100 µM | RXF 631 > 100 µM | SNB-78 > 100 µM

CC(C)OP(=O)(OC(C)C)c1ncn(-c2ccc([N+](=O)[O-])cc2)n1
inactive: DLD-1 > 100 µM | KM-20L2 > 100 µM | LXFL 529 > 100 µM | M19-MEL > 100 µM

ClCCCN1CCCCC1CCl (stereo unspecified)
inactive: 786-0 72.1 µM | DLD-1 > 100 µM | KM-20L2 > 100 µM | LXFL 529 > 100 µM | M19-MEL > 100 µM

CCOC(=O)C1=C(c2ccccc2)N(C(C)=O)Cc2ccccc21
inactive: 786-0 28.1 µM | DLD-1 28.7 µM | KM-20L2 21.6 µM | LXFL 529 22.5 µM | M19-MEL 18.8 µM

CN1CCc2[nH]c3ccccc3c2C1
inactive: DLD-1 > 100 µM | KM-20L2 > 100 µM | M19-MEL > 100 µM | SNB-78 > 100 µM
